Experimental data: publication PMC6207720, “Identification and antitumor activity of a novel inhibitor of the NIMA-related kinase NEK6” (Scientific Reports, 2018)

Key:
NEK9 = target: T1, NEK9 (Homo sapiens, UniProt Q8TD19); test: Off-chip Mobility Shift Assay (MSA) profiling, NEK9; type: biochemical; conditions: ATP approximating Km
T1 sequence (Q8TD19 1-979): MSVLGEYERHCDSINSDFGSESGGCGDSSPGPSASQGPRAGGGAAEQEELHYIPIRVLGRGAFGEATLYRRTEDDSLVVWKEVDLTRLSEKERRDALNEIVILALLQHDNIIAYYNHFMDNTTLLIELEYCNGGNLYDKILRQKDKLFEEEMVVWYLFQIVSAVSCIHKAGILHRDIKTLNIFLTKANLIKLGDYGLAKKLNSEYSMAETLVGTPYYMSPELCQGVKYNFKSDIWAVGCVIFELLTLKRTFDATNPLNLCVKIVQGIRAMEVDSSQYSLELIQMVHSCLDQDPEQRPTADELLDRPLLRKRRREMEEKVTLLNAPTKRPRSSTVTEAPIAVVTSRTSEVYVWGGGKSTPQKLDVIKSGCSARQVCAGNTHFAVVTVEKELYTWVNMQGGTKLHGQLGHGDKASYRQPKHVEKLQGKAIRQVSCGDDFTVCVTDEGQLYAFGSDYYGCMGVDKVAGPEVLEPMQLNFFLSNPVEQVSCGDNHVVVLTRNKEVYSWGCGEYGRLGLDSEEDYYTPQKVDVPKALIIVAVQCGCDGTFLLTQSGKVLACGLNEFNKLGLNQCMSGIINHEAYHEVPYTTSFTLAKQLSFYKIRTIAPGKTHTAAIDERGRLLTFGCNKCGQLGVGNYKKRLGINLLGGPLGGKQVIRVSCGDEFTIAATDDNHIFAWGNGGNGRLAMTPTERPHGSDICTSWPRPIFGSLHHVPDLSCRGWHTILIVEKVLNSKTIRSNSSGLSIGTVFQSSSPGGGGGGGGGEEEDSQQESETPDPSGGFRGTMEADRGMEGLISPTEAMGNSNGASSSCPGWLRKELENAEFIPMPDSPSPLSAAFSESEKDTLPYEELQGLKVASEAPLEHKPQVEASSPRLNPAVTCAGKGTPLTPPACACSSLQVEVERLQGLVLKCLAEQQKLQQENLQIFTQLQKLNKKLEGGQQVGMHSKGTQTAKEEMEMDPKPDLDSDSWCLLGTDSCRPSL
Experimental: (§1) Therefore, we decided to evaluate the selectivity of compound 8 against a panel of NEK kinases at 10 µM, using the technique of Off-chip Mobility shift assay. This concentration was chosen according to the guidelines proposed by Knight and Shokat, since the probability of off-target effects increases dramatically above 10 µM[36]. Furthermore, ATP concentration was set to approximate the Km,ATP for each kinase, so that the resulting selectivity profile directly reflects the intrinsic affinities of the inhibitor[37]. […] A major consequence of this substitution may be the redistribution of surface charges at the flexible activation loop resulting in an altered electrostatic potential and ability of NEK6 kinase to interact with other molecules.
(§2) The inhibitory activity of compounds 8 and 21 on NEK6 was also verified with MSA technique (Off-chip Mobility shift assay) (CARNA Biosciences Study ID: CBS170097, CARNA Biosciences, Kobe). […] PKR Inhibitor was used as positive control. For profiling study against NEK kinases (i.e. NEK1, NEK2, NEK6, NEK7, NEK9) (CARNA Biosciences Study ID: CBS170098), 8 was tested at 10 μM and ATP concentration approximating Km for each kinase. Assay condition for kinases are available on “Kinase profiling book” downloading by www.carnabio.com (https://www.carnabio.com/output/pdf/ProfilingProfilingBook_en.pdf).

PEO1 (ovary) = test: Cell-based cytotoxicity assay (ATPlite), PEO1; design: species or system human; conditions: Homo sapiens; PEO1, 72 h, ATPlite; NA = not active (IC50 greater than 100 µM); read-out: IC50 Values (µM ± SEM)
Description: (§3) The following human carcinoma cell lines were used for the study: MDA-MB-231 and MCF-7 (breast cancer; ATCC, Sesto San Giovanni, MI), PEO1 and COV318 (ovarian cancer; ECACC, Salisbury, UK and ATCC), HCT-15 and SW948 (colon cancer; Public Health England, Salisbury, UK and ATCC), NCI-H1975 and NCI-H1299, (lung cancer; ATCC). Cells were routinely tested free of mycoplasma (MycoAlert mycoplasma detection kit, LONZA, Rockland, ME, USA) and validated by STR (Short Tandem Repeat) DNA profiling (BMR Genomics srl, PD). Cells were grown following supplier indication, in a fully humidified atmosphere of 5% CO2/95% air. All the reagents were purchased from Sigma-Aldrich (St. Louis, MO), if not otherwise specified.

MDA-MB-231 (breast) = test: Cell-based cytotoxicity assay (ATPlite), MDA-MB-231; conditions: Homo sapiens, MDA-MB-231, 72 h, NA = not active (IC50 greater than 100 µM), read-out: IC50 Values (µM ± SEM)
Description: as §3

NEK6 = target: T2, NEK6 (Homo sapiens, UniProt Q9HC98); test: Off-chip Mobility Shift Assay (MSA), NEK6; type: biochemical
T2 construct: purchased Carna 05-130
Experimental: as §1, §2

PEO1 cells = test: Cell cycle analysis by flow cytometry; type: cell-based, human; conditions: 48 hours, compound at its IC50 concentration
Experimental: In order to assess whether the ability of compound 8 to inhibit cell proliferation was accounted for by cell cycle-related changes in cell division, we analysed the progression of PEO1 cells through the cell cycle by flow cytometry at 24, 48 and 72 hours from treatment. PEO1 was selected since, in our experimental conditions, was the cell line showing the highest sensitivity to 8. […] The effect was already measurable at the first experimental time point (24 h) and remained stable over time (Fig. 8).
PEO1 cell cycle perturbations induced by compound 8 (used at its IC50 concentration) were evaluated by standard flow cytometry methods. Briefly, at the end of each incubation period adherent cells were trypsinized, harvested and washed with cold phosphate-buffered saline several times. Cells were then counted, gently fixed in 70% v/v cold ethanol, adding the ethanol dropwise to the cell pellet while vortexing, and incubated at −20 °C for no longer than 7 days. Prior to DNA staining, fixed cells were spun down and treated with RNase (100 µg/ml) for 10 mins to ensure that only DNA was stained. 1 × 10^6/ml cells were then stained with propidium iodide (PI, 0.5 mg/ml) and stored at +4 °C overnight. The day after, stained cells were subjected to flow cytometry. Flow cytometry analysis was performed using the 6-parameter flow cytometer (2 scatter and 4 fluorescence signals) EPICS-XL (Beckman Coulter). A minimum of 30,000 cells of interest were acquired for each sample at a low flow rate (<200 events/sec). Analysis of cell cycle perturbation was performed by the ModFit LT software (Verity software house). Pulse shape processing was used to exclude cell doublets from the analysis.

NCI-H1299 (lung) = test: Cell-based cytotoxicity assay (ATPlite), NCI-H1299; conditions: Homo sapiens, NCI-H1299, 72 h, NA = not active (IC50 greater than 100 µM), read-out: IC50 Values (µM ± SEM)
Description: as §3

T2 sequence (Q9HC98 whole entry): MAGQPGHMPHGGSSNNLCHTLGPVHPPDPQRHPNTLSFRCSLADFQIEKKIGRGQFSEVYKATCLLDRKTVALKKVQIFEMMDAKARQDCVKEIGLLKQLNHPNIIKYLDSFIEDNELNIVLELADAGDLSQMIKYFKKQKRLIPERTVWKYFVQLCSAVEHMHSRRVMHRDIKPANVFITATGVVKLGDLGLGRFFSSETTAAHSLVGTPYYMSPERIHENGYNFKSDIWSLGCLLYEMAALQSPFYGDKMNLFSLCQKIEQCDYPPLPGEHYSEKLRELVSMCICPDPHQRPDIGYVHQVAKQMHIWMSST

CC1=C(C#N)C(O)=NC(=O)/C1=C\c1ccc(-c2ccccc2)o1 [Compound 8, (5Z)-2-hydroxy-4-methyl-6-oxo-5-[(5-phenylfuran-2-yl)methylidene]-5,6-dihydropyridine-3-carbonitrile]
inhibition at 10 µM (NEK9): 3.1% | IC50 (PEO1 (ovary)): 44 ± 6.5 µM | IC50 (MDA-MB-231 (breast)): 65 ± 15 µM | inhibition at 10 µM (NEK6; 10 µM, ATP approximating Km): 42.5% | IC50 (NEK6; CARNA Biosciences Study CBS170097, ATP 75 µM): 13.8 µM | percentage of PEO1 cells in G0/G1 (PEO1 cells): 61% | percentage of PEO1 cells in G2/M (PEO1 cells): 16% | percentage of PEO1 cells in S (PEO1 cells): 23% | IC50 (NCI-H1299 (lung)): 87.8 ± 10 µM
